What was measured:
Cbl-b [1] = biological target: T1, Cbl-b (Homo sapiens, UniProt Q13191); assay: Cbl-b inhibition assay (Cbl-b activity assay, FRET, Biological Example 1; 100 mM NaCl, 60 nM Src kinase); assay type: biochemical; details: upper bound stated in text lists; read-out: IC50 values in the Cbl-b inhibition assay of Biological Example 1
Method in brief: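 Inhibitor activity is measured as reduced terbium-to-fluorescein FRET between streptavidin-terbium on biotinylated Cbl-b and Bodipy-fluorescein ubiquitin carried by an irreversible UbcH5B-Ub conjugate, binding of which depends on Src phosphorylation of Cbl-b.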

T-cell [2] = assay: IL-2 secretion from T-cells co-stimulated with anti-CD3 and anti-CD28 antibody (Biological Example 2); assay type: cell-based, human; details: for fold induction at 0.3 µM: 0.3 μM Cbl-b inhibitor; for fold induction at 1 µM: 1 μM Cbl-b inhibitor; for IL-2 secretion, Anti-CD3/Anti-CD28 stimulation, fold change over baseline: baseline = anti-CD3/anti-CD28 stimulated cells without inhibitor
Method in brief: (§1)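 T-cells were stimulated with anti-CD3 antibody alone or with anti-CD28 antibody, in the presence or absence of Cbl-b inhibitor. IL-2 secretion or CD25 surface staining was measured, and values expressed as fold over the uninhibited baseline […].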

T-cell [3] = assay: IL-2 secretion from T-cells stimulated with anti-CD3 antibody alone (Biological Example 2); assay type: cell-based, human; details: for fold induction at 1 µM: 1 μM Cbl-b inhibitor
T-cell [4] = assay: CD25 cell surface staining on T-cells co-stimulated with anti-CD3 and anti-CD28 antibody (Biological Example 2); assay type: cell-based, human; details: for fold induction at 0.3 µM: 0.3 μM Cbl-b inhibitor; for fold induction at 1 µM: 1 μM Cbl-b inhibitor; for CD25 staining, Anti-CD3/Anti-CD28 stimulation, fold change over baseline: baseline = anti-CD3/anti-CD28 stimulated cells without inhibitor
Method in brief: as §1

T-cell [5] = assay: CD25 cell surface staining on T-cells stimulated with anti-CD3 antibody alone (Biological Example 2); assay type: cell-based, human; details: for fold induction at 1 µM: 1 μM Cbl-b inhibitor; for CD25 staining, Anti-CD3 stimulation, fold change over baseline: baseline = anti-CD3/anti-CD28 stimulated cells without inhibitor
Cbl-b [6] = biological target: T1, Cbl-b; assay: Cbl-b activity assay (Cbl-b inhibition assay), TR-FRET of Cbl-b interaction with UbcH5B-Ub; assay type: biochemical; details: assay buffer with 100 mM NaCl, 60 nM Src kinase; read-out: Cbl-b activity IC50
Method in brief: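 UbcH5B (C85K) conjugated to N-terminally Bodipy-Fluorescein-labeled ubiquitin served as the fluorescent partner. After compound preincubation, Src kinase (60 nM) with 1 mM ATP and 5 mM MgCl2 (final) was added for 1.5 h, followed by a further 1 h incubation. Some values were obtained with 50 mM NaCl and 30 nM Src.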

[7] = Homo sapiens, T-cell, fold change over baseline (anti-CD3/anti-CD28 stimulated T-cells without inhibitor), read-out: IL-2 secretion Anti-CD3/Anti-CD28 stimulation
[8] = Homo sapiens, T-cell, fold change over baseline (anti-CD3/anti-CD28 stimulated T-cells without inhibitor), read-out: IL-2 secretion Anti-CD3 stimulation
[9] = Homo sapiens, T-cell, fold change over baseline (anti-CD3/anti-CD28 stimulated T-cells without inhibitor), read-out: CD25 staining Anti-CD3/Anti-CD28 stimulation
[10] = Homo sapiens, T-cell, fold change over baseline (anti-CD3/anti-CD28 stimulated T-cells without inhibitor), read-out: CD25 staining Anti-CD3 stimulation
[11] = Homo sapiens, T-cell, fold change over baseline, primary human total T-cells, read-out: IL-2 secretion Anti-CD3/Anti-CD28 stimulation
[12] = Homo sapiens, T-cell, fold change over baseline, primary human total T-cells, read-out: CD25 staining Anti-CD3/Anti-CD28 stimulation
[13] = 0.3 μM compound, primary human total T-cells
[14] = 1 μM compound, primary human total T-cells
[15] = 4 μM compound, primary human total T-cells
[16] = 8 μM compound, primary human total T-cells

T1 sequence (Q13191 36-427): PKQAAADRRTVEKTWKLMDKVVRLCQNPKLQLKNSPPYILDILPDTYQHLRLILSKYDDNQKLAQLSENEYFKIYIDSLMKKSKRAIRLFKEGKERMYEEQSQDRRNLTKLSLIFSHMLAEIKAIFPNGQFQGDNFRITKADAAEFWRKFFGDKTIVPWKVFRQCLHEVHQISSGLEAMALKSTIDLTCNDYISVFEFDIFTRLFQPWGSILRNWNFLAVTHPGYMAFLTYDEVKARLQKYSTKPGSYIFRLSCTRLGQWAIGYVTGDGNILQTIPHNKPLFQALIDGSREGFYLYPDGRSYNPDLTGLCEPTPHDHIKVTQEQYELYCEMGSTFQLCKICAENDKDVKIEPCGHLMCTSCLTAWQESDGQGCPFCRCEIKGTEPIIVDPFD

Structure (SMILES)	IC50 (Cbl-b [1]) [nM]	fold induction at 0.3 µM (T-cell [2]; [7])	fold induction at 1 µM (T-cell [2]; [7])	fold induction at 1 µM (T-cell [3]; [8])	fold induction at 0.3 µM (T-cell [4]; [9])	fold induction at 1 µM (T-cell [4]; [9])	fold induction at 1 µM (T-cell [5]; [10])	IC50 (Cbl-b [6]) [nM]	also measured
C[C@H](c1cc2c(c(C(F)(F)F)c1)CN(c1cccc(C3(Cc4nncn4C)COC3)c1)C2=O)N1CC(F)C1 [Example 668a, (R)-6-(1-(3-fluoroazetidin-1-yl)ethyl)-2-(3-(3-((4-methyl-4H-1,2,4-triazol-3-yl)methyl)oxetan-3-yl)phenyl)-4-(trifluoromethyl)isoindolin-1-one]	≤ 100	2.51 to 5	5 to 7.5	0.101 to 0.15	1.31 to 1.5	1.51 to 1.75	> 1	< 100	
C[C@H](Cc1nncn1C)c1cccc(N2Cc3c(cc(C4CC4)cc3C(F)(F)F)C2=O)c1 [Compound 260, (R)-6-cyclopropyl-2-(3-(1-(4-methyl-4H-1,2,4-triazol-3-yl)propan-2-yl)phenyl)-4-(trifluoromethyl)isoindolin-1-one]	≤ 100							< 100	fold induction at 0.3 µM (T-cell [2]; [11]): 1.01 to 2.5; fold induction at 1 µM (T-cell [2]; [11]): 1.01 to 2.5; fold induction at 4 µM (T-cell [2]; Homo sapiens, T-cell, fold change over baseline, 4 μM Cbl-b inhibitor, primary human total T-cells, read-out: IL-2 secretion Anti-CD3/Anti-CD28 stimulation): 2.51 to 5; fold induction at 1 µM (T-cell [3]; T-cell, fold change over baseline, primary human total T-cells, read-out: IL-2 secretion Anti-CD3 stimulation): > 0.201; fold induction at 8 µM (T-cell [3]; T-cell, fold change over baseline, 8 μM Cbl-b inhibitor, primary human total T-cells, read-out: IL-2 secretion Anti-CD3 stimulation): > 0.201; fold induction at 0.3 µM (T-cell [4]; [12]): 1.01 to 1.3; fold induction at 1 µM (T-cell [4]; [12]): 1.01 to 1.3; fold induction at 4 µM (T-cell [4]; Homo sapiens, T-cell, fold change over baseline, 4 μM Cbl-b inhibitor, primary human total T-cells, read-out: CD25 staining Anti-CD3/Anti-CD28 stimulation): 1.31 to 1.5; fold induction at 1 µM (T-cell [5]; T-cell, fold change over baseline, primary human total T-cells, read-out: CD25 staining Anti-CD3 stimulation): 0.801 to 1; fold induction at 8 µM (T-cell [5]; T-cell, fold change over baseline, 8 μM Cbl-b inhibitor, primary human total T-cells, read-out: CD25 staining Anti-CD3 stimulation): > 1
Cn1cnnc1CC1(c2cccc(N3Cc4c(cc(CN5CC[C@H](c6ccccc6)C5)cc4C(F)(F)F)C3=O)c2)COC1 [Example 662a, (R)-2-(3-(3-((4-methyl-4H-1,2,4-triazol-3-yl)methyl)oxetan-3-yl)phenyl)-6-((3-phenylpyrrolidin-1-yl)methyl)-4-(trifluoromethyl)isoindolin-1-one]	≤ 100	5 to 7.5	> 7.5	> 0.201	1.01 to 1.3	1.01 to 1.3	0.801 to 1	< 100	
CC(c1cc(C(=O)Nc2cccc(C3(Cc4nncn4C)COC3)c2)nc(C2CC2)n1)N1CCCC1 (stereo not drawn) [Example 593, 2-Cyclopropyl-N-(3-(3-((4-methyl-4H-1,2,4-triazol-3-yl)methyl)oxetan-3-yl)phenyl)-6-(l-(pyrrolidin-1-yl)ethyl)pyrimidine-4-carboxamide]	≤ 100	> 7.5	> 7.5	> 0.201	1.31 to 1.5	1.31 to 1.5	> 1	< 100	
Cn1cnnc1[C@H](F)C1(c2cccc(N3Cc4c(cc(CN5CCCCC5)cc4C(F)(F)F)C3=O)c2)COC1 [Example 674b, (R)-2-(3-(3-(fluoro(4-methyl-4H-1,2,4-triazol-3-yl)methyl)oxetan-3-yl)phenyl)-6-(piperidin-1-ylmethyl)-4-(trifluoromethyl)isoindolin-1-one]	≤ 100	> 7.5	> 7.5	> 0.201	1.01 to 1.3	1.01 to 1.3	> 1	< 100	
Cn1cnnc1CC1(c2cccc(N3Cc4c(cc(OC(F)F)cc4C(F)(F)F)C3=O)c2)COC1 [Example 595, 6-(Difluoromethoxy)-2-(3-(3-((4-methyl-4H-1,2,4-triazol-3-yl)methyl)oxetan-3-yl)phenyl)-4-(trifluoromethyl)isoindolin-1-one]	≤ 100	2.51 to 5	5 to 7.5	0.051 to 0.1	1.01 to 1.3	1.31 to 1.5	0.801 to 1	< 100	
Cn1cnnc1CC1(c2cccc(NC(=O)c3cc(CN4CC[C@H](F)C4)nc(C4CC4)n3)c2)COC1 [Example 574, (S)-2-Cyclopropyl-6-((3-fluoropyrrolidin-1-yl)methyl)-N-(3-(3-((4-methyl-4H-1,2,4-triazol-3-yl)methyl)oxetan-3-yl)phenyl)pyrimidine-4-carboxamide]	≤ 100	> 7.5	> 7.5	> 0.201	1.51 to 1.75	1.51 to 1.75	> 1	< 100	
C[C@H](Cc1nncn1C)c1cc(C2CCOCC2)nc(N2Cc3c(cccc3C(F)(F)F)C2=O)c1 [Example 686, (R)-2-(4-(1-(4-methyl-4H-1,2,4-triazol-3-yl)propan-2-yl)-6-(tetrahydro-2H-pyran-4-yl)pyridin-2-yl)-4-(trifluoromethyl)isoindolin-1-one]	≤ 1000	1.01 to 2.5	1.01 to 2.5	< 0.05	1.01 to 1.3	1.01 to 1.3	< 0.6	301 to 1000	
C[C@H](Cc1nncn1C)c1cc(C2CC2)nc(N2Cc3c(cccc3C(F)(F)F)C2=O)c1 [Example 680, (R)-2-(6-cyclopropyl-4-(1-(4-methyl-4H-1,2,4-triazol-3-yl)propan-2-yl)pyridin-2-yl)-4-(trifluoromethyl)isoindolin-1-one]	≤ 100	1.01 to 2.5	2.51 to 5	0.101 to 0.15	1.01 to 1.3	1.01 to 1.3	0.801 to 1	< 100	
Cn1cnnc1[C@@H](F)[C@](C)(F)c1cccc(N2Cc3c(cccc3C(F)(F)F)C2=O)c1 (stereo in doubt) [Compound 480, 2-(3-((1R,2R)-1,2-difluoro-1-(4-methyl-4H-1,2,4-triazol-3-yl)propan-2-yl)phenyl)-4-(trifluoromethyl)isoindolin-1-one]	≤ 300							100 to 300	IL-2 secretion, Anti-CD3/Anti-CD28 stimulation, fold change over baseline (T-cell [2]; [13]): D (D indicates 1.01-2.50 fold); IL-2 secretion, Anti-CD3/Anti-CD28 stimulation, fold change over baseline (T-cell [2]; [14]): D (D indicates 1.01-2.50 fold); IL-2 secretion, Anti-CD3/Anti-CD28 stimulation, fold change over baseline (T-cell [2]; [15]): D (D indicates 1.01-2.50 fold); IL-2 secretion, Anti-CD3 stimulation, fold change over baseline (T-cell [3]; [14]): E (E indicates ≤0.050 fold); IL-2 secretion, Anti-CD3 stimulation, fold change over baseline (T-cell [3]; [16]): D (D indicates 0.051-0.1 fold); CD25 staining, Anti-CD3/Anti-CD28 stimulation, fold change over baseline (T-cell [4]; [13]): D (D indicates 1.01-1.30 fold); CD25 staining, Anti-CD3/Anti-CD28 stimulation, fold change over baseline (T-cell [4]; [14]): D (D indicates 1.01-1.30 fold); CD25 staining, Anti-CD3/Anti-CD28 stimulation, fold change over baseline (T-cell [4]; [15]): D (D indicates 1.01-1.30 fold); CD25 staining, Anti-CD3 stimulation, fold change over baseline (T-cell [5]; [14]): D (D indicates ≤0.600 fold); CD25 staining, Anti-CD3 stimulation, fold change over baseline (T-cell [5]; [16]): C (C indicates 0.601<0.800 fold)
CC(c1cc2c(c(C3CC3)n1)CN(c1cccc(C3(Cc4nncn4C)COC3)c1)C2=O)N1CCC2(CC2)C1 (stereo not drawn) [Example 585, 6-(1-(5-Azaspiro[2.4]heptan-5-yl)ethyl)-4-cyclopropyl-2-(3-(3-((4-methyl-4H-1,2,4-triazol-3-yl)methyl)oxetan-3-yl)phenyl)-2,3-dihydro-1H-pyrrolo[3,4-c]pyridin-1-one]	≤ 100	2.51 to 5	5 to 7.5	0.051 to 0.1	1.01 to 1.3	1.01 to 1.3	0.801 to 1	< 100	
